Measured values from ChEMBL document CHEMBL3991601, “The target landscape of clinical kinase drugs” (Science, 2017).
Activity calls are given as the source filed them. For most assays here, no stated cut-off is given here; in the data, actives have a measured Kd and inactives only a lower limit.

Experiments:
[1] = biological target: AP2-associated protein kinase 1 (Homo sapiens, UniProt Q2M2I8)
[2] = biological target: Serine/threonine-protein kinase B-raf (Homo sapiens, UniProt P15056)
[3] = biological target: Cyclin-dependent kinase 4 (Homo sapiens, UniProt P11802)
[4] = biological target: Tyrosine-protein kinase HCK (Homo sapiens, UniProt P08631)
[5] = biological target: T1, Dual specificity mitogen-activated protein kinase kinase 3 (Homo sapiens, UniProt P46734)
T1 sequence (P46734 whole entry): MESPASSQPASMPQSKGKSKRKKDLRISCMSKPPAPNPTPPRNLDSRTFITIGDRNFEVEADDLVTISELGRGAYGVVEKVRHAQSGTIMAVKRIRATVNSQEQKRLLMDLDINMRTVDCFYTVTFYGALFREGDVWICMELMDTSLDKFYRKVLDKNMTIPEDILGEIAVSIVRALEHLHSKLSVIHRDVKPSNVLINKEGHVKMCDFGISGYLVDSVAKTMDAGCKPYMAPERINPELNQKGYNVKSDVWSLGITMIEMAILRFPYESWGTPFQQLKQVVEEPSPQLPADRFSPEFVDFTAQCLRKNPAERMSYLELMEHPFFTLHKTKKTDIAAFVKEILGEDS

[6] = biological target: Mitogen-activated protein kinase kinase kinase kinase 1 (Homo sapiens, UniProt Q92918)
[7] = biological target: Mitogen-activated protein kinase kinase kinase kinase 4 (Homo sapiens, UniProt O95819)
[8] = biological target: Myosin light chain kinase, smooth muscle (Homo sapiens, UniProt Q15746)
[9] = biological target: T2, RNA cytidine acetyltransferase (Homo sapiens, UniProt Q9H0A0)
T2 sequence (Q9H0A0 whole entry): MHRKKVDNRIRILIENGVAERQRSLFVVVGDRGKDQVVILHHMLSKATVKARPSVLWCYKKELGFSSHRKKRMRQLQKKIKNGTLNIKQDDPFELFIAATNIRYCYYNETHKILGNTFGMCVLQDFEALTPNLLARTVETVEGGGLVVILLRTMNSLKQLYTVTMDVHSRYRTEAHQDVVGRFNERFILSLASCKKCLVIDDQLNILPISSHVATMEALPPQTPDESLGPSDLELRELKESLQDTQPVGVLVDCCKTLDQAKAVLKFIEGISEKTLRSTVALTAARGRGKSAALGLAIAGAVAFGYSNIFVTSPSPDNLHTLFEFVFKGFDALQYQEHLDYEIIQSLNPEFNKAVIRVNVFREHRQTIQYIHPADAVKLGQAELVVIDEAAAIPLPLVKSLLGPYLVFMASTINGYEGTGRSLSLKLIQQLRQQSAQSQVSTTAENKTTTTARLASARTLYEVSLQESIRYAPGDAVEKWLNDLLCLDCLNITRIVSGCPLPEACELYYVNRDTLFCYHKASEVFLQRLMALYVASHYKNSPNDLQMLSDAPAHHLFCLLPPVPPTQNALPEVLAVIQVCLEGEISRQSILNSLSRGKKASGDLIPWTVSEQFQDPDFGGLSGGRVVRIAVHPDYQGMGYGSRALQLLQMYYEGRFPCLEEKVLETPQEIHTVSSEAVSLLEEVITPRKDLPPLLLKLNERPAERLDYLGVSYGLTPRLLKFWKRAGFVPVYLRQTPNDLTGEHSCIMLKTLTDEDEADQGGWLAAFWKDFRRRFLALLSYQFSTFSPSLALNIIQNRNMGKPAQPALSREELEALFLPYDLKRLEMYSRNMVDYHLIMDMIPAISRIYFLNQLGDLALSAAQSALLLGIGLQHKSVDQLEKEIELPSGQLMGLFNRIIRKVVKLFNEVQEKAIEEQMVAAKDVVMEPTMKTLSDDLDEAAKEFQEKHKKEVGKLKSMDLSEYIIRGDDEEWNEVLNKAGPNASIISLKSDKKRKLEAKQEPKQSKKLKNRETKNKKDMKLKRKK

[10] = biological target: Receptor-interacting serine/threonine-protein kinase 2 (Homo sapiens, UniProt O43353)
[11] = biological target: T3, Serine/threonine-protein kinase TAO1 (Homo sapiens, UniProt Q7L7X3)
T3 sequence (Q7L7X3 whole entry): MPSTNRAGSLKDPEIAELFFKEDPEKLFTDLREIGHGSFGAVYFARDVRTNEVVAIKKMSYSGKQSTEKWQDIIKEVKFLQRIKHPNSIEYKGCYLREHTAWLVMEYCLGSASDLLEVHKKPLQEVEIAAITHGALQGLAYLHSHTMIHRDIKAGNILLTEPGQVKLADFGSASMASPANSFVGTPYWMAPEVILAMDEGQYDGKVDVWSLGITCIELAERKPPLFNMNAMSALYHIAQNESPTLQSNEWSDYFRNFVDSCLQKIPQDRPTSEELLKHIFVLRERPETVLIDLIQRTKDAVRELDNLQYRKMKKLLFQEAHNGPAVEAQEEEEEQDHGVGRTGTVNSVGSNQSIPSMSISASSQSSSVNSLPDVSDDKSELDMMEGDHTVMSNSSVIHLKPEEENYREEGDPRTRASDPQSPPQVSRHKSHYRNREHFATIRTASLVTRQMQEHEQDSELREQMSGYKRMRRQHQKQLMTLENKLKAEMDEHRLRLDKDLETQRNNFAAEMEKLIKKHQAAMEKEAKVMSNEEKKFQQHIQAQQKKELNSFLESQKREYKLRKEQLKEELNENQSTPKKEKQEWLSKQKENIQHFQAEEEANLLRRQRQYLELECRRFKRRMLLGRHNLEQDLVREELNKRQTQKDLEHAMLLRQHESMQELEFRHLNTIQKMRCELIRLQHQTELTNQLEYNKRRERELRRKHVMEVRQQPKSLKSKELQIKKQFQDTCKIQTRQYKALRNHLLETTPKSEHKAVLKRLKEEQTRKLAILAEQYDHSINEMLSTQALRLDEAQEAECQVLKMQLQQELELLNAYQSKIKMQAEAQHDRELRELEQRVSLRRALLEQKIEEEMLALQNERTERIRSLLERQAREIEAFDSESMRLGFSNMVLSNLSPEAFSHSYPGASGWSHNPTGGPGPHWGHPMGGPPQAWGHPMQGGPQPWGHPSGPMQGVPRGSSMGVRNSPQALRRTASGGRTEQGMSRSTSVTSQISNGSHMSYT

Cyclin-dependent kinase 4, sequence (P11802 whole entry): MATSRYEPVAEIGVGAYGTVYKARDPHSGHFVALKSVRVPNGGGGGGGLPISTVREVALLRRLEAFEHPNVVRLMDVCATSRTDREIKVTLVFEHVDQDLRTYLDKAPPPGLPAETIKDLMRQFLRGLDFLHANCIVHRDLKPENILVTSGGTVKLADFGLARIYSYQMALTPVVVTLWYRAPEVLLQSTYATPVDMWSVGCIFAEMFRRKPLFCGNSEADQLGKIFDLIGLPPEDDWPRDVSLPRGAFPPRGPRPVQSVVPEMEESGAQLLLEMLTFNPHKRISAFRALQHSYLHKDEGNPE
Tyrosine-protein kinase HCK, sequence (P08631 whole entry): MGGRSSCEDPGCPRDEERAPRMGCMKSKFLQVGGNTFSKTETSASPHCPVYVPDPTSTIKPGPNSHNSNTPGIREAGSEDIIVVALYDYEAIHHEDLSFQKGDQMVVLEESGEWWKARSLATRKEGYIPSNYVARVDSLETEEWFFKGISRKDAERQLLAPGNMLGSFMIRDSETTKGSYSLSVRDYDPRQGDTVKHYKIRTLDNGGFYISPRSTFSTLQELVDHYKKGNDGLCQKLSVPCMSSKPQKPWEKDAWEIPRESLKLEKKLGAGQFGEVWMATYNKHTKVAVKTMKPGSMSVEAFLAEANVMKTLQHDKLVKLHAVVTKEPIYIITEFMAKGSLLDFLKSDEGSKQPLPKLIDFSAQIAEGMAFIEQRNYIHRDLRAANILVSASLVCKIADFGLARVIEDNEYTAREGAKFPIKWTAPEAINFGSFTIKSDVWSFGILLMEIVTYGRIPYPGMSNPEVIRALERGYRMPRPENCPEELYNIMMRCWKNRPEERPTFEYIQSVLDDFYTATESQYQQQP
Serine/threonine-protein kinase B-raf, sequence (P15056 whole entry): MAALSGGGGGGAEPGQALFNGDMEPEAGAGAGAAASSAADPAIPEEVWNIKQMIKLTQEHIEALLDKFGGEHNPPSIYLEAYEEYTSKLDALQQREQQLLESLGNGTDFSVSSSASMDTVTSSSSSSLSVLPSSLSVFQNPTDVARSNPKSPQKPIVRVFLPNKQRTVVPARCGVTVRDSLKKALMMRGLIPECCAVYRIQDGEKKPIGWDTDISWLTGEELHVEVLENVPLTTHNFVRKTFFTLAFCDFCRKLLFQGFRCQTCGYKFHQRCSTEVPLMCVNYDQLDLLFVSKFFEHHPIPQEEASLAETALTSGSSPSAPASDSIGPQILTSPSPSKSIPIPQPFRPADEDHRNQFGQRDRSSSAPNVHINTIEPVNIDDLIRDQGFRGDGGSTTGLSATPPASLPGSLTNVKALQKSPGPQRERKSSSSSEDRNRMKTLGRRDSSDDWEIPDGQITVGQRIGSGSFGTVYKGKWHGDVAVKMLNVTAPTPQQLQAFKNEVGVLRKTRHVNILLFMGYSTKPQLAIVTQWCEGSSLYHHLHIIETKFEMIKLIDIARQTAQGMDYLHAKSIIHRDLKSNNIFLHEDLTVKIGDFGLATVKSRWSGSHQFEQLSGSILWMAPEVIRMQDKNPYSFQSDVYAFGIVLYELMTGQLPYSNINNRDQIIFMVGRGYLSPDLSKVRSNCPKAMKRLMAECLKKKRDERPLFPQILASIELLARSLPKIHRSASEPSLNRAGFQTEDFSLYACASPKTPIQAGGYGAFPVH
Mitogen-activated protein kinase kinase kinase kinase 4, sequence (O95819 whole entry): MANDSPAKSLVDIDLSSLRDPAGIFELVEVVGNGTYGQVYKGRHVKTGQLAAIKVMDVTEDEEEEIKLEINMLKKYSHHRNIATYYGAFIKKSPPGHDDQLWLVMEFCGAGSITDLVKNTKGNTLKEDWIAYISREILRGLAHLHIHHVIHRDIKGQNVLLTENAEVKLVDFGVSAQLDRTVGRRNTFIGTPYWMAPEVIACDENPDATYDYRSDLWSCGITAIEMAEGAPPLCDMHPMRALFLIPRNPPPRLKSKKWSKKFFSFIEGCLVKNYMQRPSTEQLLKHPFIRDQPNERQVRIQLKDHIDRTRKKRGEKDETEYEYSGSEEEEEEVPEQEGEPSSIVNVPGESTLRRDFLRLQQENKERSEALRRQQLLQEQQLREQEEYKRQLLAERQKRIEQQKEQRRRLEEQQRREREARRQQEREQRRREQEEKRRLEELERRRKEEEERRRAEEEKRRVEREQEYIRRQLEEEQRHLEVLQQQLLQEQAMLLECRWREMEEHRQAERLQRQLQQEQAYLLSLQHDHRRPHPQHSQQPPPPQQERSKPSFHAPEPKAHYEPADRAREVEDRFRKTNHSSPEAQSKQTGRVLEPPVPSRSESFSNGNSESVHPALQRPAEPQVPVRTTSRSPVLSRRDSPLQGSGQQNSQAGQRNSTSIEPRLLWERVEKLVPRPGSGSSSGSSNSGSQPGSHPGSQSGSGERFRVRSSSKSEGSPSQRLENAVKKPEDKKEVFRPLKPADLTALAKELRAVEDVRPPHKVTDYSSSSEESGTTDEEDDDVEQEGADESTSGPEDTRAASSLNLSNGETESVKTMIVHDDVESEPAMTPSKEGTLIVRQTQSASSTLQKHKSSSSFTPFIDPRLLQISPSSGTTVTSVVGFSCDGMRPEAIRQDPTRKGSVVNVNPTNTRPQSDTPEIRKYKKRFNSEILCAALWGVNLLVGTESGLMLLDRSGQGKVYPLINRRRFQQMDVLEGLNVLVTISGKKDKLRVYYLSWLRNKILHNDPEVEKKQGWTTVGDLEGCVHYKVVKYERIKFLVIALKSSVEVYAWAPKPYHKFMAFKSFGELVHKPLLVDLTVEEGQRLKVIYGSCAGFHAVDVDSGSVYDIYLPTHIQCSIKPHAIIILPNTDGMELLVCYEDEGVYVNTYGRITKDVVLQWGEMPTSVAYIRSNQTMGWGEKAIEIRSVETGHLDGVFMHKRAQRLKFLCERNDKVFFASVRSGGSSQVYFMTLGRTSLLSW
Receptor-interacting serine/threonine-protein kinase 2, sequence (O43353 whole entry): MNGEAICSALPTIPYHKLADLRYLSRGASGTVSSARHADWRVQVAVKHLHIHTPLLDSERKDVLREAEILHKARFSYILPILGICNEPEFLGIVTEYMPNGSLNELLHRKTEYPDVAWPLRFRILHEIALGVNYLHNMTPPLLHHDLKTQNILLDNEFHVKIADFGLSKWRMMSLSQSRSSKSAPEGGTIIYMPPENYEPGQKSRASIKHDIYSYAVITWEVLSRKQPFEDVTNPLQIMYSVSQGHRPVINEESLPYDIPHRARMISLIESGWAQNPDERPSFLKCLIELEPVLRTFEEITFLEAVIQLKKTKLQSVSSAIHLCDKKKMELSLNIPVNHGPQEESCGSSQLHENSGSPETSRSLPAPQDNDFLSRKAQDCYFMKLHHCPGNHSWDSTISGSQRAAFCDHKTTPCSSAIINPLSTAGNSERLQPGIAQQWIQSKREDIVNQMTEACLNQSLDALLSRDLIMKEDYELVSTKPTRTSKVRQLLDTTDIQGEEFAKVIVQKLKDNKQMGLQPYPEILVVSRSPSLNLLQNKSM
Mitogen-activated protein kinase kinase kinase kinase 1, sequence (Q92918 whole entry): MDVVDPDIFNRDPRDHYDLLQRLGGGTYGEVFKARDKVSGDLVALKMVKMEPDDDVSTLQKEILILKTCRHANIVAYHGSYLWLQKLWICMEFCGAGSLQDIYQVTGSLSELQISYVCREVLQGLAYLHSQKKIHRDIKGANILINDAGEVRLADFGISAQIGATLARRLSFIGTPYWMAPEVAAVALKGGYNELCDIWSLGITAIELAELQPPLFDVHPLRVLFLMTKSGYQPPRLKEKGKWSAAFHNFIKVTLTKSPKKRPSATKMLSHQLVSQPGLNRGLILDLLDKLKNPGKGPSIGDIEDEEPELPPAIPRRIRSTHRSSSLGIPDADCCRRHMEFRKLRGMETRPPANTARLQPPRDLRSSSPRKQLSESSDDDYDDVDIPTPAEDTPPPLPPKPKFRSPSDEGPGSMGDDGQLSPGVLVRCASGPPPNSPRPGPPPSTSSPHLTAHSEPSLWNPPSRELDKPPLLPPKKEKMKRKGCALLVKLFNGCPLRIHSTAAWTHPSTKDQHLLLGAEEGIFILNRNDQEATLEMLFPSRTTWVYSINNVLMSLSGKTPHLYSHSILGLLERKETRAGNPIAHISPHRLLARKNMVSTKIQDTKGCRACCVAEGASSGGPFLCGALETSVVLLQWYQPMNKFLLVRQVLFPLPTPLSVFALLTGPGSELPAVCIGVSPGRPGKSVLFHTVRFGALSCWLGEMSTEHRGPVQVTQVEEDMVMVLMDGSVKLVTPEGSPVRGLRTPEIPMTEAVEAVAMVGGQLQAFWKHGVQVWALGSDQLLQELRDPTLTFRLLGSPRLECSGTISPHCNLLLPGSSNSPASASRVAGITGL

Kd [1] | Kd [2] | Kd [3] | Kd [4] | Kd [5] | Kd [6] | Kd [7] | Kd [8] | Kd [9] | Kd [10] | Kd [11] | Structure (SMILES)
> 30 µM (inactive) | > 30 µM (inactive) | > 30 µM (inactive) | > 30 µM (inactive) | > 30 µM (inactive) | > 30 µM (inactive) | > 30 µM (inactive) | > 30 µM (inactive) | > 30 µM (inactive) | > 30 µM (inactive) | > 30 µM (inactive) | N[C@@H]1CCCN(c2c(/C=C3\SC(=O)NC3=O)cccc2-c2ccccc2)C1
> 30 µM (inactive) | > 30 µM (inactive) | > 30 µM (inactive) | > 30 µM (inactive) | > 30 µM (inactive) | > 30 µM (inactive) | > 30 µM (inactive) | > 30 µM (inactive) | > 30 µM (inactive) | > 30 µM (inactive) | > 30 µM (inactive) | Cc1ccc(S(=O)(=O)Nc2nc3ccccc3nc2Nc2ccc3nsnc3c2)cc1
> 30 µM (inactive) | > 30 µM (inactive) | > 30 µM (inactive) | > 30 µM (inactive) | > 30 µM (inactive) | > 30 µM (inactive) | 7.98 µM (active) | > 30 µM (inactive) | > 30 µM (inactive) | > 30 µM (inactive) | > 30 µM (inactive) | CCN1CCN(Cc2ccc(-c3cc4c(N[C@H](C)c5ccccc5)ncnc4[nH]3)cc2)CC1 [AEE-788]
> 30 µM (inactive) | > 30 µM (inactive) | > 30 µM (inactive) | > 30 µM (inactive) | > 30 µM (inactive) | > 30 µM (inactive) | > 30 µM (inactive) | > 30 µM (inactive) | > 30 µM (inactive) | > 30 µM (inactive) | > 30 µM (inactive) | Cn1ncc(Cl)c1-c1cc(C(=O)N[C@H](CN)Cc2cccc(F)c2)sc1Cl [AFURESERTIB]
1.32 µM (active) | > 30 µM (inactive) | > 30 µM (inactive) | 1.25 µM (active) | > 30 µM (inactive) | > 30 µM (inactive) | > 30 µM (inactive) | > 30 µM (inactive) | > 30 µM (inactive) | > 30 µM (inactive) | > 30 µM (inactive) | COc1cc(N2CCC(N3CCN(C)CC3)CC2)ccc1Nc1ncnc(Nc2ccccc2S(=O)(=O)C(C)C)n1 [ASP-3026]
> 30 µM (inactive) | 0.007 µM | > 30 µM (inactive) | > 30 µM (inactive) | > 30 µM (inactive) | – | > 30 µM (inactive) | > 30 µM (inactive) | > 30 µM (inactive) | > 30 µM (inactive) | > 30 µM (inactive) | CNS(=O)(=O)Nc1nccc(Cc2c(C)c3ccc(Oc4ncccn4)cc3oc2=O)c1F [AVUTOMETINIB]
> 30 µM (inactive) | > 30 µM (inactive) | > 30 µM (inactive) | > 30 µM (inactive) | > 30 µM (inactive) | – | > 30 µM (inactive) | > 30 µM (inactive) | > 30 µM (inactive) | > 30 µM (inactive) | > 30 µM (inactive) | C[C@@H](c1ccc2nccn2c1)n1nnc2ncc(-c3cnn(C)c3)nc21 [SAVOLITINIB]

Structure (SMILES) | Kd [1] | Kd [2] | Kd [3] | Kd [4] | Kd [5] | Kd [6] | Kd [7] | Kd [8] | Kd [9] | Kd [10] | Kd [11]
CN1CC[C@@H](c2c(O)cc(O)c3c(=O)cc(-c4ccccc4Cl)oc23)[C@@H]1CO | > 30 µM (inactive) | > 30 µM (inactive) | > 30 µM (inactive) | > 30 µM (inactive) | > 30 µM (inactive) | > 30 µM (inactive) | > 30 µM (inactive) | > 30 µM (inactive) | > 30 µM (inactive) | > 30 µM (inactive) | > 30 µM (inactive)
Cc1cc(-c2cc(O)ccc2Cl)cc2nnc(Nc3ccc(OCCN4CCCC4)cc3)nc12 | > 30 µM (inactive) | 0.003 µM (active) | > 30 µM (inactive) | > 30 µM (inactive) | > 30 µM (inactive) | > 30 µM (inactive) | > 30 µM (inactive) | > 30 µM (inactive) | > 30 µM (inactive) | 0.0009 µM (active) | > 30 µM (inactive)
